Test results: article PMC6347521 (Current protocols in toxicology, 2018)
Read-outs that look alike come from different tables or passages of the source.

Columns and labels:
rat = conditions: ref not given; cited from earlier work
[1] = system: Hep3B human hepatoma cell line; assay: cells; format: cell-based; conditions: read-out: IC50 TMRM
[2] = system: Hep3B human hepatoma cell line; assay: cells; format: cell-based; conditions: read-out: IC50 Hoechst
[3] = system: Hep3B human hepatoma cell line; assay: cells; format: cell-based; conditions: read-out: IC50 mBCl
[4] = system: Hep3B human hepatoma cell line; assay: cells; format: cell-based; conditions: read-out: IC50 Calcein AM
2D = conditions: read-out: IC50 2D (literature review), cited from earlier work
[5] = 2D cell culture, ref literature review

With CC/C(=C(\c1ccccc1)c1ccc(OCCN(C)C)cc1)c1ccccc1 [Tamoxifen] as the molecule, how does the “LD50 mg/kg (rat oral)” value (rat) read?
The value was 4100 mg/kg.

What does the source list for O=C([O-])CC(O)(CC(=O)[O-])C(=O)[O-].[Na+].[Na+].[Na+] [Sodium citrate]?
IC50 [1]: > 1400 µM; IC50 [2]: > 1400 µM; IC50 [3]: > 1400 µM; IC50 [4]: > 1400 µM; IC50 (2D): > 1400 µM

What does the source list for CC(=O)Nc1ccc(O)cc1 [Acetaminophen]?
IC50 ([1]; Homo sapiens, Hep3B, 48 h): > 2100 µM; IC50 ([2]; Homo sapiens, Hep3B, 48 h): > 2100 µM; IC50 ([3]; Homo sapiens, Hep3B, 48 h): > 2100 µM; IC50 ([4]; Homo sapiens, Hep3B, 48 h): > 2100 µM; IC50 (2D): 29800 µM

With CC1=CC(=O)c2ccccc2C1=O [Menadione] as the molecule, how does the IC50 ([1]; Homo sapiens, Hep3B, 48 h) read?
The IC50 was 11.5 ± 2.5 µM.

And the IC50 ([2]; Homo sapiens, Hep3B, 48 h)?
The IC50 was 20 ± 1 µM.

What about the IC50 ([3]; Homo sapiens, Hep3B, 48 h) of the same molecule?
Its IC50 is 15 ± 2.3 µM.

What about the IC50 ([4]; Homo sapiens, Hep3B, 48 h) of the same molecule?
Its IC50 is 11 ± 3.8 µM.

And the IC50 (2D; [5])?
The IC50 was 13.5 ± 3.6 µM.

Which IC50 ([1]; Homo sapiens, Hep3B, 48 h) does the source give for CC[C@H](C)C(=O)O[C@H]1C[C@@H](C)C=C2C=C[C@H](C)[C@H](CC[C@@H]3C[C@@H](O)CC(=O)O3)[C@H]21 [Lovastatin] here?
Its IC50 is 152 ± 6.7 µM.

And the IC50 ([2]; Homo sapiens, Hep3B, 48 h)?
The IC50 was 188 ± 17.7 µM.

What about the IC50 ([3]; Homo sapiens, Hep3B, 48 h) of the same molecule?
Its IC50 is 195 ± 5 µM.

What about the IC50 ([4]; Homo sapiens, Hep3B, 48 h) of the same molecule?
Its IC50 is 150 µM.

What about the IC50 (2D) of the same molecule?
The IC50 was 20 ± 3.7 µM.

What about the “LD50 mg/kg (rat oral)” value (rat) of the same molecule?
The value was 5000 mg/kg.

With C=C(C)[C@H]1Cc2c(ccc3c2O[C@@H]2COc4cc(OC)c(OC)cc4[C@@H]2C3=O)O1 [Rotenone] as the molecule, how does the IC50 ([1]; Homo sapiens, Hep3B, 48 h) read?
The IC50 was 0.6 ± 0.3 µM.

What about the IC50 ([2]; Homo sapiens, Hep3B, 48 h) of the same molecule?
Its IC50 is 3 µM.

And the IC50 ([3]; Homo sapiens, Hep3B, 48 h)?
Its IC50 is 1.7 ± 0.7 µM.

What about the IC50 ([4]; Homo sapiens, Hep3B, 48 h) of the same molecule?
Its IC50 is 8 ± 6 µM.

And the IC50 (2D; [5])?
The IC50 was 1.7 ± 1.2 µM.

And the “LD50 mg/kg (rat oral)” value (rat)?
The value was 30 mg/kg.
